Values after ≈ are worked out from the molar mass of the structure shown.
Assays:
[1] = tested on: Helicobacter pylori; test: Minimum inhibitory concentration that inhibited macroscopic colony growth of Helicobacter pylori; type: functional
[2] = biological target: Histamine H2 receptor (Cavia porcellus) (UniProt P47747); test: Histamine H2 receptor antagonism in isolated guinea pig right atrium at concentration of 1*10e-6 g/mL of histamine hydrochloride; type: functional, tissue-based; settings: Cardiac atrium
[3] = tested on: Rattus norvegicus; test: Inhibition of histamine stimulated gastric acid secretion in lumen perfused stomach of anesthetized rats at 1 mg/kg i.v. dose; type: functional; settings: route intravenous
[4] = tested on: Bacteroides fragilis; test: Antimicrobial activity against Bacteroides fragilis; type: functional
[5] = tested on: Clostridium perfringens; test: (§1) Antimicrobial activity against Clostridium perfringens; type: functional
[6] = tested on: Campylobacter jejuni; test: Antimicrobial activity against Campylobacter jejuni; type: functional
[7] = tested on: Clostridioides difficile; test: (§2) Antimicrobial activity against Clostridium difficile; type: functional
[8] = tested on: Neisseria gonorrhoeae; test: Antimicrobial activity against Neisseria gonorrhoeae; type: functional
[9] = tested on: Neisseria meningitidis; test: Antimicrobial activity against Neisseria meningitidis; type: functional
[10] = tested on: Clostridium perfringens; test: as §1; type: functional, organism-based
[11] = tested on: Clostridioides difficile; test: as §2; type: functional, organism-based
[12] = tested on: Helicobacter pylori; test: Antimicrobial activity against Helicobacter pylori; type: functional

Chain of Histamine H2 receptor (Cavia porcellus) (P47747 whole entry, the tested form may be a part): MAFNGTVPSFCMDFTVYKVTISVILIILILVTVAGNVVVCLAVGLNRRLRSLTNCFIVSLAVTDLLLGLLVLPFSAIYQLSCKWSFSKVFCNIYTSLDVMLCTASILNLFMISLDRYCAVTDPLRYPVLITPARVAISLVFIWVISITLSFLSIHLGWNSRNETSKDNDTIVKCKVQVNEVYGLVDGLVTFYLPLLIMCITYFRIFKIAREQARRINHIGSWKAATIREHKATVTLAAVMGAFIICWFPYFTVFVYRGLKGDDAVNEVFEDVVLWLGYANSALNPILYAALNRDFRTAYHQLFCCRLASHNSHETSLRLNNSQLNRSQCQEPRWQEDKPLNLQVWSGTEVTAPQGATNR

| Compound | MIC [1] [µg/mL] | inhibition [2] [%] | also measured |
| --- | --- | --- | --- |
| CC(=O)NCc1ccc(-c2csc(NC(=N)NCCNc3ccccc3)n2)o1 | 1.79 (≈ 4.49 µM) | – | – |
| CC(=O)NCc1ccc(-c2csc(NC(=N)NCCc3ccccc3[N+](=O)[O-])n2)o1 | 0.14 (≈ 0.327 µM) | 66 | inhibition in vivo at 1 mg/kg [3]: 39% |
| CC(=O)NCc1ccc(-c2csc(NC(=N)NCCc3ccccn3)n2)o1 | 0.73 (≈ 1.9 µM) | 0 | – |
| COc1ccccc1CC/N=C(\N)Nc1nc(-c2ccc(CNC(C)=O)o2)cs1 | 0.052 (≈ 0.126 µM) | 67 | inhibition in vivo at 1 mg/kg [3]: 54% |
| CC(=O)NCc1ccc(-c2csc(NC(=N)NCCc3cccs3)n2)o1 | 0.112 (≈ 0.288 µM) | 83 | inhibition in vivo at 1 mg/kg [3]: 21% |
| COc1cccc(CC/N=C(\N)Nc2nc(-c3ccc(CNC(C)=O)o3)cs2)c1 | 0.36 (≈ 0.871 µM) | 70 | inhibition in vivo at 1 mg/kg [3]: 65% |
| COc1ccc(C/N=C(\N)Nc2nc(-c3ccc(CNC(C)=O)o3)cs2)cc1 | 0.28 (≈ 0.701 µM) | – | – |
| CC(=O)NCc1ccc(-c2csc(NC(=N)NCCCc3ccccc3)n2)o1 | – | 40 | – |
| COc1cccc(C/N=C(\N)Nc2nc(-c3ccc(CNC(C)=O)o3)cs2)c1 | – | 28 | – |
| (2,5-Dihydroxy-4,7-dioxo-[1,3,2]dioxabismepan-5-yl)-acetic acid | 18 | – | – |
| COc1ccccc1CC/N=C(\N)Nc1nc(-c2cc(CNC(C)=O)co2)cs1 | 2.21 (≈ 5.34 µM) | – | – |
| CC[C@H]1OC(=O)[C@H](C)[C@@H](O[C@H]2C[C@@](C)(OC)[C@@H](O)[C@H](C)O2)[C@H](C)[C@@H](O[C@@H]2O[C@H](C)C[C@H](N(C)C)[C@H]2O)[C@](C)(OC)C[C@@H](C)C(=O)[C@H](C)[C@@H](O)[C@]1(C)O [CLARITHROMYCIN] | 0.057 (≈ 0.0762 µM) | – | – |
| COc1ccc(CC/N=C(\N)Nc2nc(-c3ccc(CNC(C)=O)o3)cs2)cc1 | 0.9 (≈ 2.18 µM) | 27 | inhibition in vivo at 1 mg/kg [3]: 5% |
| COc1ccccc1OCC/N=C(\N)Nc1nc(-c2ccc(CNC(C)=O)o2)cs1 | 2.5 (≈ 5.82 µM) | – | – |
| CN/C(=N\CCSCc1nc[nH]c1C)NC#N [CIMETIDINE] | 1130 (≈ 4480 µM) | – | inhibition in vivo at 1 mg/kg [3]: 53% |
| COc1ccccc1/N=C(\N)Nc1nc(-c2ccc(CNC(C)=O)o2)cs1 | 0.24 (≈ 0.623 µM) | – | – |
| COc1ccccc1CC/N=C(\N)Nc1nc(-c2cc(CNC(C)=O)c(C)o2)cs1 | 0.046 (≈ 0.108 µM) | 0 | MIC [4]: > 100 µg/mL; MIC [5]: > 100 µg/mL; MIC [6]: 23 µg/mL (≈ 53.8 µM); MIC [7]: > 100 µg/mL; MIC [8]: > 100 µg/mL; MIC [9]: > 100 µg/mL |
| COc1ccccc1CC/N=C(\N)Nc1nc(-c2cc(-c3ccccc3)c(CNC(C)=O)o2)cs1 | 9.47 (≈ 19.3 µM) | – | – |

| Compound | MIC [1] [µg/mL] | inhibition [2] [%] | also measured |
| --- | --- | --- | --- |
| CC(=O)NCc1ccc(-c2csc(NC(=N)NCc3ccccc3C)n2)o1 | – | 88 | – |
| COc1ccccc1CC/N=C(\N)Nc1nc(-c2cc(C)c(CNC(C)=O)o2)cs1 | 0.03 (≈ 0.0702 µM) | 0 | – |
| CC(=O)NCc1ccc(-c2csc(NC(=N)NCc3ccccc3Cl)n2)o1 | – | 50 | – |
| CC(=O)NCc1ccc(-c2csc(NC(=N)NCCc3c[nH]cn3)n2)o1 | 31 (≈ 83 µM) | – | – |
| BISMUTH SUBSALICYLATE | – | – | MIC [4]: 50 µg/mL; MIC [10]: > 100 µg/mL; MIC [6]: 7.4 µg/mL; MIC [11]: 50 µg/mL; MIC [12]: 8.7 µg/mL; MIC [8]: 4.7 µg/mL; MIC [9]: 12.5 µg/mL |
| CC(=O)NCc1ccc(-c2csc(NC(=N)NCCc3ccccc3)n2)o1 | 0.13 (≈ 0.339 µM) | 71 | inhibition in vivo at 1 mg/kg [3]: 24% |
| CC(=O)NCc1ccc(-c2csc(NC(=N)NCc3ccco3)n2)o1 | – | 46 | – |
| COc1ccccc1C/N=C(\N)Nc1nc(-c2ccc(CNC(C)=O)o2)cs1 | – | 26 | – |
| CC(=O)NCc1ccc(-c2csc(NC(=N)NCc3ccccc3)n2)o1 | – | 35 | – |
| CCOc1ccccc1C/N=C(\N)Nc1nc(-c2ccc(CNC(C)=O)o2)cs1 | – | 42 | – |
| Cc1ncc([N+](=O)[O-])n1CCO [METRONIDAZOLE] | 5.4 (≈ 31.6 µM) | – | – |
| CC1(C)S[C@@H]2[C@H](NC(=O)[C@H](N)c3ccc(O)cc3)C(=O)N2[C@H]1C(=O)O [AMOXICILLIN] | – | – | MIC [4]: 2.1 µg/mL (≈ 5.75 µM); MIC [5]: 0.027 µg/mL (≈ 0.0739 µM); MIC [6]: 2.2 µg/mL (≈ 6.02 µM); MIC [7]: 0.28 µg/mL (≈ 0.766 µM); MIC [12]: 0.021 µg/mL (≈ 0.0575 µM); MIC [8]: 7.7 µg/mL (≈ 21.1 µM); MIC [9]: 0.056 µg/mL (≈ 0.153 µM) |
| CC(=O)NCc1ccc(-c2csc(NC(=N)NCCc3ccco3)n2)o1 | 0.24 (≈ 0.643 µM) | 63 | inhibition in vivo at 1 mg/kg [3]: 0% |
| CC(=O)NCc1ccc(-c2csc(NC(=N)NCCc3ccccc3N)n2)o1 | 1.01 (≈ 2.53 µM) | – | – |
| CC(=O)NCc1ccc(-c2csc(NC(=N)NCCc3ccncc3)n2)o1 | 1.92 (≈ 4.99 µM) | – | – |
| CC(=O)NCc1ccc(-c2csc(NC(=N)NCc3ccccc3O)n2)o1 | 5.8 (≈ 15 µM) | – | – |
| CC(=O)NCc1ccc(-c2csc(NC(=N)NCCc3ccccc3NC(C)=O)n2)o1 | 4.1 (≈ 9.31 µM) | – | – |
